Results reported in patent publication US20240092779A1, “USP1 INHIBITORS AND USES THEREOF” (Zentaur Therapeutics USA Inc., priority 2022, published 2024).

Key:
[1] = target: T1, recombinant USP1/UAF1 enzyme complex (Homo sapiens, UniProt O94782); experiment: Enzyme assay: deubiquitinase fluorometric assay with ubiquitin-Rhodamine substrate; assay type: biochemical; conditions: USP1/UAF1, Ub-Rho110 substrate, 2 hours preincubation, 1 hour reaction
T1 construct: purchased Biortus
Method: Enzymatic inhibitory potency of the compounds was assessed in a deubiquitinase fluorometric assay using ubiquitin-Rhodamine (Ub-Rho110, R&D Systems) as substrate and the recombinant USP1/UAF1 enzyme complex (Biortus). Assays were performed in a final volume of 12 μL using black 384-well plates (Corning #4514) containing 50 mM HEPES (pH 7.5, BioRoYee), 0.5 mM EDTA, 1 mM dithiothreitol, 0.1 mg/mL bovine serum albumin, 50 nM Ub-Rhol10, 0.004 nM USP1/UAF1, and series diluted compounds from 10 μM to 0.5 nM (10 dilution steps). Assay-ready plates containing 40 nL of Echo-dispensed compound in DMSO were reconstituted with 2 μL of ddH2O, then 5 μL of USP1/UAF1 enzyme mixture was added and preincubated at room temperature for 2 hours. Enzymatic reaction was initiated by the addition of […] substrate mixture and assay allowed to proceed for 1 hour at room temperature before quenching with 3 μL of 150 mM citric acid. Fluorescence signal was detected via TECAN SPARK with excitation at 485 nm and emission at 535 nm. Data analysis was done using GraphPad Prism8 and IC50 values were obtained by 4-parameter logistic curve fitting.
Certain compounds were tested in the assays.

HCC1806 Ub-PCNA (USP1) = experiment: USP1 Western Blot Protocol (HCC1806 Ub-PCNA); assay type: cell-based; conditions: HCC1806 cells, 4 hours
Method in brief: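 HCC1806 cells seeded overnight, then treated 4 h at 37 °C with a 5-point, 4-fold dilution series (0.1% DMSO). Lysates immunoblotted for Ub-PCNA with fluorescent detection; inhibition expressed as % vehicle from Ub-PCNA upregulation, IC50 by four-parameter logistic fit.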

MDA-MB-436 cells = experiment: CTG Protocol (MDA-MB-436 GI50), antiproliferative activity; assay type: cell-based, human; conditions: MDA-MB-436 cells (BRCA1 mutation), 7-day incubation, CellTiter-Glo
Method in brief: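 BRCA1-mutant MDA-MB-436 cells were seeded at 1000 cells/well in DMEM, left overnight, then exposed to a 9-point, 3-fold compound series for 7 days at 37 °C, 5% CO2. Viability was read by CellTiter-Glo luminescence. % inhibition was plotted against concentration to derive GI50.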

[2] = Liver microsomal stability (HLM); assay type: in vitro ADME; conditions: human, liver microsomes, human liver microsomes 0.5 mg/mL, 1 μM compound, NADPH

T1 sequence (O94782 whole entry): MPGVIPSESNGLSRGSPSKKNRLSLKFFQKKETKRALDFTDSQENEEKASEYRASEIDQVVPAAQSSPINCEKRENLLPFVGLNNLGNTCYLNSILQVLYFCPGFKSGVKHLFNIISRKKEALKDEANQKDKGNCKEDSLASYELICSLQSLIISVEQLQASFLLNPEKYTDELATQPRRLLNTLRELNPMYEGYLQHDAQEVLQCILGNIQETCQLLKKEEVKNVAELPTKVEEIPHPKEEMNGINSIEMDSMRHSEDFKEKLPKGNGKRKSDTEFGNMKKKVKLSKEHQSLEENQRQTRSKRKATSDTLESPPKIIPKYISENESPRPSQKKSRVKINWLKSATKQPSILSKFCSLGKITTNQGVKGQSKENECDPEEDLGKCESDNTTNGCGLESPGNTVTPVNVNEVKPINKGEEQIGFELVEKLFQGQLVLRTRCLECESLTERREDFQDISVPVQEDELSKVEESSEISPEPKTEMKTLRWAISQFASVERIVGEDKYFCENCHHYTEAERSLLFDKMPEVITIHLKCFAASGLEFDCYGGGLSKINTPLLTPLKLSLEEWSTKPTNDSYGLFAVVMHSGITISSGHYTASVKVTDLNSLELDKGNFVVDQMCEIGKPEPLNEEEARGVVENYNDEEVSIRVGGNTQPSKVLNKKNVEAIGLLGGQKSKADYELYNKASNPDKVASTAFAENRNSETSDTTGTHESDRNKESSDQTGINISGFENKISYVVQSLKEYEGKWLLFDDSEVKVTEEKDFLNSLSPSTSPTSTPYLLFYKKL
T1 sequence (Q8TAF3 whole entry partner): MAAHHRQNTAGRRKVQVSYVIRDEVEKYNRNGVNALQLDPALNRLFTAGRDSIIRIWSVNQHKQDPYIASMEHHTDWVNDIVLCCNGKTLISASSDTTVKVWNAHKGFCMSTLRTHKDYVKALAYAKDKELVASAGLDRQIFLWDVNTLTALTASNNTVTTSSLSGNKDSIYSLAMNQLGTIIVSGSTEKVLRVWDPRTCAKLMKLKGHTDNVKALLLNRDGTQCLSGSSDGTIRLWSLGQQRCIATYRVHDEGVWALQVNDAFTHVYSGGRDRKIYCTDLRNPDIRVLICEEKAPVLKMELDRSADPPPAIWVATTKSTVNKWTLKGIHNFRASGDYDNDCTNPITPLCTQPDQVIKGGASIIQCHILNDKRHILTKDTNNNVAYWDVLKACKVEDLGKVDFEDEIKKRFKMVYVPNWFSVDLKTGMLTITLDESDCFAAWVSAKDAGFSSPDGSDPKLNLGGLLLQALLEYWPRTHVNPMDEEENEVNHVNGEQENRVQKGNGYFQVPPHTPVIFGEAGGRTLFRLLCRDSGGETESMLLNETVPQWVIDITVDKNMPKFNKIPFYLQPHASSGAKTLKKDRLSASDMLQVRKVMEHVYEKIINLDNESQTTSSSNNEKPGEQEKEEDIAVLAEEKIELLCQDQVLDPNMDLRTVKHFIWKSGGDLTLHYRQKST

IC50 [1] | IC50 (HCC1806 Ub-PCNA (USP1); Homo sapiens) | GI50 (MDA-MB-436 cells; Homo sapiens, 168 h) | microsomal CLint at 1 μM [2] | IC50 (HCC1806 Ub-PCNA (USP1)) | GI50 (MDA-MB-436 cells) | SMILES
0.01 to 0.1 µM | 0.01 to 0.1 µM | 0.01 to 0.1 µM | – | – | – | CCn1cc(C(F)(F)F)nc1-c1ccc(Cn2c(=O)c(Br)cc3cnc(-c4c(OC)ncnc4C4CC4)nc32)cc1 [Compound I-38, 6-Bromo-2-(4-Cyclopropyl-6-Methoxypyrimidin-5-Yl)-8-({4-[1-Ethyl-4-(Trifluoromethyl)Imidazol-2-Yl]Phenyl}Methyl)Pyrido[2,3-d]Pyrimidin-7-One]
0.1 to 1 µM | 0.1 to 1 µM | 0.1 to 1 µM | – | – | – | COc1ncnc(C2CC2)c1-c1ncc2ccc(=O)n(Cc3ccc(-c4cncc(C(F)(F)F)n4)cc3)c2n1 [Compound I-51, 2-(4-cyclopropyl-6-methoxypyrimidin-5-yl)-8-({4-[6-(trifluoromethyl)pyrazin-2-yl]phenyl}methyl)pyrido[2,3-d]pyrimidin-7-one]
0.01 to 0.1 µM | 0.01 to 0.1 µM | 0.01 to 0.1 µM | – | – | – | COc1ncnc(C2CC2)c1-c1ncc2ccc(=O)n(Cc3ccc(-c4nc(C(F)(F)F)cn4C)cc3)c2c1F [Compound I-50, 7-(4-cyclopropyl-6-methoxypyrimidin-5-yl)-8-fluoro-1-({4-[1-methyl-4-(trifluoromethyl)imidazol-2-yl]phenyl}methyl)-1,6-naphthyridin-2-one]
0.01 to 0.1 µM | 0.01 to 0.1 µM | 0.01 to 0.1 µM | – | – | – | CCc1ncnc(OC)c1-c1ncc2ccc(=O)n(Cc3ccc(-c4nc(C(F)(F)F)cn4C)cc3)c2n1 [Compound I-48, 2-(4-Ethyl-6-Methoxypyrimidin-5-Yl)-8-({4-[1-Methyl-4-(Trifluoromethyl)Imidazol-2-Yl]Phenyl}Methyl)Pyrido[2,3-d]Pyrimidin-7-One]
0.01 to 0.1 µM | < 0.01 µM | < 0.01 µM | – | – | – | CCn1cc(C(F)(F)F)nc1-c1ccc(Cn2c(=O)cnc3cnc(-c4c(OC)ncnc4C4CC4)nc32)cc1 [Compound I-28]
0.01 to 0.1 µM | 0.1 to 1 µM | 0.01 to 0.1 µM | – | – | – | COc1ncnc(C2CC2)c1-c1ncc2ccc(=O)n(Cc3ccc(-c4ncccc4N4CCN(C)CC4)cc3)c2n1 [Compound 85, 2-(4-cyclopropyl-6-methoxypyrimidin-5-yl)-8-({4-[3-(4-methylpiperazin-1-yl)pyridin-2-yl]phenyl}methyl)pyrido[2,3-d]pyrimidin-7-one]
0.1 to 1 µM | 0.01 to 0.1 µM | 0.01 to 0.1 µM | – | – | – | COc1ncnc(C2CC2)c1-c1ncc2ccc(=O)n(Cc3ccc(-c4nc(C)ccc4F)cc3)c2n1 [Compound I-35]
0.01 to 0.1 µM | 0.1 to 1 µM | 0.01 to 0.1 µM | – | – | – | COc1ncnc(C2CC2)c1-c1ncc2cc(CN3CCNCC3)c(=O)n(Cc3ccc(-c4nc(C(F)(F)F)cn4C)cc3)c2n1 [Compound 54, 2-(4-cyclopropyl-6-methoxypyrimidin-5-yl)-8-({4-[1-methyl-4-(trifluoromethyl)imidazol-2-yl]phenyl}methyl)-6-(piperazin-1-ylmethyl)pyrido[2,3-d]pyrimidin-7-one]
0.01 to 0.1 µM | 0.01 to 0.1 µM | 0.01 to 0.1 µM | ≥ 50 µL/min/mg | – | – | COc1ncnc(C2CC2)c1-c1ncc2ccc(=O)n(Cc3ccc(-c4ncccc4OC(C)C)cc3)c2n1 [Compound I-33]
0.01 to 0.1 µM | 0.01 to 0.1 µM | 0.01 to 0.1 µM | ≥ 50 µL/min/mg | – | – | COc1ncnc(C2CC2)c1-c1ncc2c(n1)N(Cc1ccc(-c3nc(C(F)(F)F)cn3C(C)C)cc1)C(=O)NC2 [Compound I-24]
0.01 to 0.1 µM | 0.01 to 0.1 µM | 0.01 to 0.1 µM | ≥ 50 µL/min/mg | – | – | COc1ncnc(C2CC2)c1-c1ncc2c(n1)N(Cc1ccc(-c3nc(C(F)(F)F)cn3C(C)C)cc1)C(=O)N(C)C2 [Compound I-25]
0.01 to 0.1 µM | 0.1 to 1 µM | 0.1 to 1 µM | – | – | – | Cc1ncnc(C2CC2)c1-c1ncc2ccc(=O)n(Cc3ccc(-c4nc(C(F)(F)F)cn4C)cc3)c2n1 [Compound I-49, 2-(4-Cyclopropyl-6-Methylpyrimidin-5-Yl)-8-({4-[1-Methyl-4-(Trifluoromethyl)Imidazol-2-Yl]Phenyl}Methyl)Pyrido[2,3-d]Pyrimidin-7-One]
0.01 to 0.1 µM | 0.01 to 0.1 µM | 0.01 to 0.1 µM | – | – | – | CCn1cc(C(F)(F)F)nc1-c1ccc(Cn2c(=O)c(C(=O)N3CCN(C)CC3)cc3cnc(-c4c(OC)ncnc4C4CC4)nc32)cc1 [Compound I-30, 2-(4-Cyclopropyl-6-Methoxypyrimidin-5-Yl)-8-({4-[1-Ethyl-4-(Trifluoromethyl)Imidazol-2-Yl]Phenyl}Methyl)-6-(4-Methylpiperazine-1-Carbonyl)Pyrido[2,3-d]Pyrimidin-7-One]
0.01 to 0.1 µM | 0.01 to 0.1 µM | 0.01 to 0.1 µM | – | – | – | COc1cccnc1-c1ccc(Cn2c(=O)ccc3cnc(-c4c(OC)ncnc4C4CC4)nc32)cc1 [Compound 66, 2-(4-cyclopropyl-6-methoxypyrimidin-5-yl)-8-{[4-(3-methoxypyridin-2-yl)phenyl]methyl}pyrido[2,3-d]pyrimidin-7-one]
0.01 to 0.1 µM | 0.01 to 0.1 µM | 0.01 to 0.1 µM | – | – | – | COc1ncnc(C2CC2)c1-c1ncc2ccc(=O)n(Cc3ccc(-c4nc(F)ccc4OC(C)C)cc3)c2n1 [Compound 76, 2-(4-cyclopropyl-6-methoxypyrimidin-5-yl)-8-{[4-(6-fluoro-3-isopropoxypyridin-2-yl)phenyl]methyl}pyrido[2,3-d]pyrimidin-7-one]
0.01 to 0.1 µM | – | – | – | 0.01 to 0.1 µM | 0.01 to 0.1 µM | COc1ncnc(C2CC2)c1-c1ncc2cc(C(C)(C)O)c(=O)n(Cc3ccc(-c4nc(C(F)(F)F)cn4C)cc3)c2n1 [Compound 70]
0.01 to 0.1 µM | 0.01 to 0.1 µM | 0.01 to 0.1 µM | – | – | – | COc1ncnc(OC)c1-c1ncc2ccc(=O)n(Cc3ccc(-c4nc(C(F)(F)F)cn4C)cc3)c2n1 [Compound I-47, 2-(4,6-Dimethoxypyrimidin-5-Yl)-8-({4-[1-Methyl-4-(Trifluoromethyl)Imidazol-2-Yl]Phenyl}Methyl)Pyrido[2,3-d]Pyrimidin-7-One]
0.01 to 0.1 µM | > 1 µM | 0.1 to 1 µM | – | – | – | COc1ncnc(C2CC2)c1-c1ncc2ccc(=O)n(Cc3ccc(-c4ncccc4F)cc3)c2n1 [Compound 65, 2-(4-cyclopropyl-6-methoxypyrimidin-5-yl)-8-{[4-(3-fluoropyridin-2-yl)phenyl]methyl}pyrido[2,3-d]pyrimidin-7-one]
